# Source: patent US4921865A, “Aminoacylates of glycerol acetal” (Societe de Conseils de Recherches et d'Applications …, priority 1987, dated 1990)
# What was measured:
# [1] = tested on: platelets (PAF induced platelet aggregation); test: inhibition of PAF-induced platelet aggregation in platelet rich plasma; type: cell-based, New Zealand rabbits; conditions: Oryctolagus cuniculus; rabbit platelet rich plasma, 2.5 nM PAF
# Procedure: 1--INHIBITION OF THE PLATELETS AGGREGATION ON NEW ZEALAND RABBITS
# The experimentation was conducted on platelets with plasma of New Zealand rabbits.
# Blood samples were taken from auricular artery and placed in a citrate buffer (3.8 %; pH 7.4); blood was further centrifugated for 15 mn at 1200 RPM.
# The tested sample was prepared in DMSO, then poured on platelets rich plasma for 1 mn, then a dose of 2.5 nM of PAF was added.
# The determination is made on a Cronolog Coultronics apparatus which determines the transmission percentage corresponding to the maximum height of the peak before the desaggregation.
# The percentage of variation of the inhibition with respect to the transmission percentage is calculated (control: pure DMSO).
# This method was described in details in LABORATORY INVESTIGATIONS, Vol. 41, No. 3, p. 275, 1979, JEAN-PIERRE CAZENAVE, Dr. MED. , JACQUES BENVENISTE, Dr. MED., AND J. FRASER MUSTARD, M.D., "Aggregation of Rabbits Platelets by Platelet-Activating Factor Is Independent of the Release Reaction and the Arachidonate Pathway and Inhibited by Membrane-Active Drugs".
# Five tests made on 5 different rabbits allowed us to calculate the IC50 of the various compounds using the linear regression test.
# [2] = tested on: PAF-induced bronchoconstriction; test: PAF-induced bronchoconstriction in the guinea pig; type: in vivo; conditions: for Percentage Variation (bronchoconstriction): vs control; for inhibition of PAF-induced bronchoconstriction (in words): pyridinium compound 0.5, 1 and 5 mg/kg IV, quinolinium compound 0.5 and 1 mg/kg IV
# Procedure: (§1) Male Guinea-pig (400-500 g) were anesthetized with urethane (1.5 g/kg: IP) prior to be tracheotomized and ventilated with a respiratory pump (UGO BASILE) (70-80 breath/minute, 1 ml air/100 g/breath) to abolish spontaneous respiration a pneumothorax was performed. The resistance to inflation was measured with a pressure transducer (UGO BASILE) against an initial pressure of 10 cm H2 O according to Konzett and Rossler. Animals were allocated into groups and were treated or not by the compounds of the invention (0.05, 0.1, 0.5, 1 and 5 mg/kg).The products were given IV 1 hour before challenge with PAF.
# (§2) The animals were challenged with various doses of PAF ([…]) given intravenously, and the variations in the resistance to inflation were recorded.
# PAF-induced leukopenia = PAF-induced leukopenia in the guinea pig; type: in vivo; conditions: for Percentage Variation (leukopenia): vs control
# Procedure: as §1, §2
# Blood samples were collected prior to and 1,5 and 10 minutes following to PAF-challenge. Forty μl of blood were diluted in 10 ml isoton (Coultronics, France); erythrocytes were lysed with Zapoglobin (France) prior leukocytes were counted in a coulter counter. To determine platelet number, 40 μl of blood were diluted in 2 ml isoton and centrifuged at 100 runs per minute for 30 secondes, 100 μl of the supernatant were collected and further diluted in 10 ml isoton prior counting in a coulter counter.
# [3] = tested on: antigen-induced bronchoconstriction; test: antigen-induced bronchoconstriction in passively sensitized guinea-pigs; type: in vivo, guinea-pig (Hartley); conditions: 5 mg/kg IV
# [4] = tested on: antigen-induced leukopenia; test: antigen-induced leukopenia in passively sensitized guinea-pigs; type: in vivo, guinea-pig (Hartley); conditions: 5 mg/kg IV; for Percentage Inhibition (leukopenia): vs control
# [5] = tested on: antigen-induced thrombocytopenia; test: antigen-induced thrombocytopenia in passively sensitized guinea-pigs; type: in vivo, guinea-pig (Hartley); conditions: 5 mg/kg IV; for Percentage Inhibition (thrombocytopenia): vs control
compound,measurement,setting,value
"CCCCCCCCCCCCCCCCCC1(C)OCC(COC(=O)CCCCC[n+]2cccc3ccccc32)O1 (stereo not drawn) [Example 10, 2-heptadecyl 2-methyl 4-[6'-(N-quinolinium)hexanoyloxymethyl) 1,3-dioxolanbromide]",IC50,[1],0.303 µM
same,Percentage Bronchoconstriction,[2]; 0.1 mg/kg IV,80.4 +/- 13.78%
same,Percentage Variation (bronchoconstriction),[2]; 0.1 mg/kg IV,-11.5%
same,Percentage Bronchoconstriction,[2]; 0.5 mg/kg IV,25.1 +/- 6.53%
same,Percentage Variation (bronchoconstriction),[2]; 0.5 mg/kg IV,-72.4%
same,Percentage Bronchoconstriction,[2]; 1 mg/kg IV,8.1 +/- 2.91%
same,Percentage Variation (bronchoconstriction),[2]; 1 mg/kg IV,-91.1%
same,inhibition of PAF-induced bronchoconstriction (in words),[2],inhibit
same,Percentage Decrease of leukocyte number,"PAF-induced leukopenia; 0.1 mg/kg IV, 1 mn",38.8 +/- 6.3%
same,Percentage Variation (leukopenia),"PAF-induced leukopenia; 0.1 mg/kg IV, 1 mn",+6.3%
same,Percentage Decrease of leukocyte number,"PAF-induced leukopenia; 0.1 mg/kg IV, 5 mn",38.9 +/- 5.7%
same,Percentage Variation (leukopenia),"PAF-induced leukopenia; 0.1 mg/kg IV, 5 mn",+35.5%
same,Percentage Decrease of leukocyte number,"PAF-induced leukopenia; 0.1 mg/kg IV, 10 mn",41.2 +/- 6.5%
same,Percentage Variation (leukopenia),"PAF-induced leukopenia; 0.1 mg/kg IV, 10 mn",+53.2%
same,Percentage Decrease of leukocyte number,"PAF-induced leukopenia; 0.5 mg/kg IV, 1 mn",17.0 +/- 12.9%
same,Percentage Variation (leukopenia),"PAF-induced leukopenia; 0.5 mg/kg IV, 1 mn",-58.9%
same,Percentage Decrease of leukocyte number,"PAF-induced leukopenia; 0.5 mg/kg IV, 5 mn",9.0 +/- 11.8%
same,Percentage Variation (leukopenia),"PAF-induced leukopenia; 0.5 mg/kg IV, 5 mn",-68.6%
same,Percentage Decrease of leukocyte number,"PAF-induced leukopenia; 0.5 mg/kg IV, 10 mn",-7.6 +/- 17.5%
same,Percentage Variation (leukopenia),"PAF-induced leukopenia; 0.5 mg/kg IV, 10 mn",+128.3%
same,Percentage Decrease of leukocyte number,"PAF-induced leukopenia; 1 mg/kg IV, 1 mn",24.1 +/- 6.8%
same,Percentage Variation (leukopenia),"PAF-induced leukopenia; 1 mg/kg IV, 1 mn",-41.0%
same,Percentage Decrease of leukocyte number,"PAF-induced leukopenia; 1 mg/kg IV, 5 mn",9.3 +/- 9.4%
same,Percentage Variation (leukopenia),"PAF-induced leukopenia; 1 mg/kg IV, 5 mn",-67.6%
same,Percentage Decrease of leukocyte number,"PAF-induced leukopenia; 1 mg/kg IV, 10 mn",8.9 +/- 13.2%
same,Percentage Variation (leukopenia),"PAF-induced leukopenia; 1 mg/kg IV, 10 mn",-66.9%
"CCCCCCCCCCCCCCCCCC1(C)OCC(COC(=O)CCCCC[n+]2ccccc2)O1 (stereo not drawn) [Example 9, 2-heptadecyl 2-methyl 4-[6'-(N-pyridinium)hexanoyloxymethyl] 1,3 dioxolan bromide]",IC50,[1],0.404 µM
same,Percentage Bronchoconstriction,[2]; 0.05 mg/kg IV,79.0 +/- 9.27%
same,Percentage Variation (bronchoconstriction),[2]; 0.05 mg/kg IV,-1.0%
same,Percentage Bronchoconstriction,[2]; 0.1 mg/kg IV,43.8 +/- 14.77%
same,Percentage Variation (bronchoconstriction),[2]; 0.1 mg/kg IV,-45.1%
same,Percentage Bronchoconstriction,[2]; 0.5 mg/kg IV,23.6 +/- 7.15%
same,Percentage Variation (bronchoconstriction),[2]; 0.5 mg/kg IV,-70.4%
same,Percentage Bronchoconstriction,[2]; 1 mg/kg IV,19.1 +/- 10.51%
same,Percentage Variation (bronchoconstriction),[2]; 1 mg/kg IV,-76.1%
same,Percentage Bronchoconstriction,[2]; 5 mg/kg IV,3.5 +/- 1.53%
same,Percentage Variation (bronchoconstriction),[2]; 5 mg/kg IV,-95.6%
same,inhibition of PAF-induced bronchoconstriction (in words),[2],inhibit
same,Percentage Decrease of leukocyte number,"PAF-induced leukopenia; 0.05 mg/kg IV, 1 mn",45.3 +/- 5.70%
same,Percentage Variation (leukopenia),"PAF-induced leukopenia; 0.05 mg/kg IV, 1 mn",+11.0%
same,Percentage Decrease of leukocyte number,"PAF-induced leukopenia; 0.05 mg/kg IV, 5 mn",21.6 +/- 3.42%
same,Percentage Variation (leukopenia),"PAF-induced leukopenia; 0.05 mg/kg IV, 5 mn",-26.0%
same,Percentage Decrease of leukocyte number,"PAF-induced leukopenia; 0.05 mg/kg IV, 10 mn",14.2 +/- 17.30%
same,Percentage Variation (leukopenia),"PAF-induced leukopenia; 0.05 mg/kg IV, 10 mn",-57.6%
same,Percentage Decrease of leukocyte number,"PAF-induced leukopenia; 0.1 mg/kg IV, 1 mn",41.8 +/- 6.50%
same,Percentage Variation (leukopenia),"PAF-induced leukopenia; 0.1 mg/kg IV, 1 mn",+2.5%
same,Percentage Decrease of leukocyte number,"PAF-induced leukopenia; 0.1 mg/kg IV, 5 mn",31.9 +/- 4.88%
same,Percentage Variation (leukopenia),"PAF-induced leukopenia; 0.1 mg/kg IV, 5 mn",-9.2%
same,Percentage Decrease of leukocyte number,"PAF-induced leukopenia; 0.1 mg/kg IV, 10 mn",33.5 +/- 4.65%
same,Percentage Variation (leukopenia),"PAF-induced leukopenia; 0.1 mg/kg IV, 10 mn",0.0%
same,Percentage Decrease of leukocyte number,"PAF-induced leukopenia; 0.5 mg/kg IV, 1 mn",34.6 +/- 6.35%
same,Percentage Variation (leukopenia),"PAF-induced leukopenia; 0.5 mg/kg IV, 1 mn",-15.2%
same,Percentage Decrease of leukocyte number,"PAF-induced leukopenia; 0.5 mg/kg IV, 5 mn",19.0 +/- 6.42%
same,Percentage Variation (leukopenia),"PAF-induced leukopenia; 0.5 mg/kg IV, 5 mn",-34.9%
same,Percentage Decrease of leukocyte number,"PAF-induced leukopenia; 0.5 mg/kg IV, 10 mn",14.6 +/- 5.36%
same,Percentage Decrease of leukocyte number,"PAF-induced leukopenia; 1 mg/kg IV, 1 mn",3.5 +/- 12.60%
same,Percentage Variation (leukopenia),"PAF-induced leukopenia; 1 mg/kg IV, 1 mn",-91.4%
same,Percentage Decrease of leukocyte number,"PAF-induced leukopenia; 1 mg/kg IV, 5 mn",2.9 +/- 10.51%
same,Percentage Variation (leukopenia),"PAF-induced leukopenia; 1 mg/kg IV, 5 mn",-90.1%
same,Percentage Decrease of leukocyte number,"PAF-induced leukopenia; 1 mg/kg IV, 10 mn",1.0 +/- 22.62%
same,Percentage Variation (leukopenia),"PAF-induced leukopenia; 1 mg/kg IV, 10 mn",-97.0%
same,Percentage Decrease of leukocyte number,"PAF-induced leukopenia; 5 mg/kg IV, 1 mn",16.5 +/- 2.42%
same,Percentage Variation (leukopenia),"PAF-induced leukopenia; 5 mg/kg IV, 1 mn",-59.6%
same,Percentage Decrease of leukocyte number,"PAF-induced leukopenia; 5 mg/kg IV, 5 mn",15.9 +/- 0.99%
same,Percentage Variation (leukopenia),"PAF-induced leukopenia; 5 mg/kg IV, 5 mn",-45.5%
same,Percentage Decrease of leukocyte number,"PAF-induced leukopenia; 5 mg/kg IV, 10 mn",18.7 +/- 5.08%
same,Percentage Variation (leukopenia),"PAF-induced leukopenia; 5 mg/kg IV, 10 mn",-44.2%
same,Percentage Bronchoconstriction,[3],51.3 +/- 14.2%
same,effect on antigen-induced bronchoconstriction (in words),[3],without significantly reducing
same,Percentage Variation (bronchoconstriction),[3]; vs control,-28.7%
same,effect on antigen-induced leukopenia (in words),[4],antagonizes
same,Percentage Decrease in leukocytes number,[4]; 1 mn,-15.6 +/- 6.6%
same,Percentage Inhibition (leukopenia),[4]; 1 mn,+32.0%
same,Percentage Decrease in leukocytes number,[4]; 5 mn,-8.7 +/- 10.7%
same,Percentage Inhibition (leukopenia),[4]; 5 mn,-78.0%
same,Percentage Decrease in leukocytes number,[4]; 10 mn,-12.3 +/- 14.1%
same,Percentage Inhibition (leukopenia),[4]; 10 mn,-77.2%
same,effect on antigen-induced thrombocytopenia (in words),[5],antagonizes
same,Percentage Inhibition (thrombocytopenia),[5]; 1 mn,-104.4%
same,Percentage Inhibition (thrombocytopenia),[5]; 5 mn,-91.2%
same,Percentage Inhibition (thrombocytopenia),[5]; 10 mn,-39.8%
